Where a SMILES comes first, the peptide text is derived from it. [ ]: non-standard residue; d: D form. Aib = CC(C)(N)C(=O)O
Columns and labels:
human GCGR = human GCGR (Homo sapiens, UniProt P47871); test: Peptide-receptor mediated cAMP accumulation (LANCE Ultra cAMP) in CHO-K1 cells transfected with human GCGR; assay type: cell-based; details: Table 3
human GLP-1R = human GLP-1R (Homo sapiens, UniProt P43220); test: Peptide-receptor mediated cAMP accumulation (LANCE Ultra cAMP) in CHO-K1 cells transfected with human GLP-1R; assay type: cell-based; details: hGLP1 pEC50 (cAMP mean (n = 3): 11 point curve starting at 1 nM, Table 3)
Sequence of human GLP-1R (P43220 24-463): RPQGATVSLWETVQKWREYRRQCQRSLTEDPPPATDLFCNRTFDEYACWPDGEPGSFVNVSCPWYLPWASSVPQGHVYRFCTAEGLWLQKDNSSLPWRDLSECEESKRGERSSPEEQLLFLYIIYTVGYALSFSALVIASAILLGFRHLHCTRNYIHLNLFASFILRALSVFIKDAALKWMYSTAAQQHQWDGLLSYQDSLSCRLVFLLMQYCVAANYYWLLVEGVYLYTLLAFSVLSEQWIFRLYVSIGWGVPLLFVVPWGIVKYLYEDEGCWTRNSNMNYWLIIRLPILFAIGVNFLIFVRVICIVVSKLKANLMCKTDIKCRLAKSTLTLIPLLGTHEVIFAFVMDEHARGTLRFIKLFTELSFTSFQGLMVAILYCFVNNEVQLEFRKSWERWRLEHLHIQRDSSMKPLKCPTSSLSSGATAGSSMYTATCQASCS

Sequence of human GCGR (P47871 26-477): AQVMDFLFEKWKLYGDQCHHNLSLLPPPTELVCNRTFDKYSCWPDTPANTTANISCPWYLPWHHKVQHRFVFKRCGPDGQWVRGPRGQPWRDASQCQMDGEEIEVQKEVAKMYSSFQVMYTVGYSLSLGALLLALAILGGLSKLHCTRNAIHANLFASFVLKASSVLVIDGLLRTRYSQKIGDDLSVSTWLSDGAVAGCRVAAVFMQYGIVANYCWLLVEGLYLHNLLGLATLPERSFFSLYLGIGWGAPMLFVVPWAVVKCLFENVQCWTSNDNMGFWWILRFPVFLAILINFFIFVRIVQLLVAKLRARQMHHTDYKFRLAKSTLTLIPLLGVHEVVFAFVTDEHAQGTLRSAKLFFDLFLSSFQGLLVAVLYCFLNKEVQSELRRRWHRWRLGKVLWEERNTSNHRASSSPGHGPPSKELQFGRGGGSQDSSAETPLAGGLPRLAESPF

In the case of `CC(C)C[C@H](NC(=O)[C@H](Cc1ccc(O)cc1)NC(=O)[C@H](CCCCN)NC(=O)[C@H](CO)NC(=O)[C@H](Cc1ccc(O)cc1)NC(=O)[C@H](CC(=O)O)NC(=O)[C@H](CO)NC(=O)[C@@H](NC(=O)[C@H](Cc1ccccc1)NC(=O)[C@@H](NC(=O)CNC(=O)[C@H](Cc1c[nH]cn1)NC(=O)[C@H](CO)NC(=O)[C@@H](N)Cc1ccc(O)cc1)[C@@H](C)O)[C@@H](C)O)C(=O)N[C@@H](CC(=O)O)C(=O)NC(C)(C)C(=O)N[C@@H](CCCCN)C(=O)N[C@@H](CCCNC(=N)N)C(=O)N[C@@H](C)C(=O)N[C@@H](CCC(N)=O)C(=O)N[C@@H](CCC(=O)O)C(=O)N[C@@H](Cc1ccccc1)C(=O)N[C@H](C(=O)NC(C)(C)C(=O)N[C@@H](Cc1c[nH]c2ccccc12)C(=O)N[C@@H](CC(C)C)C(=O)N[C@@H](CCC(=O)O)C(=O)N[C@@H](CC(=O)O)C(=O)N[C@@H](CCC(=O)O)C(=O)N1CCC[C@H]1C(=O)N[C@@H](CCCCN)C(=O)N[C@@H](CO)C(=O)NCC(=O)N[C@@H](C)C(=O)N1CCC[C@H]1C(=O)N1CCC[C@H]1C(=O)N1CCC[C@H]1C(=O)N[C@@H](CO)C(=O)O)C(C)C` [Compound A29] (H-YSHGTFTSDYSKYLD[Aib]KRAQEFV[Aib]WLEDEPKSGAPPPS-OH), the EC50 (human GCGR) is reported as 0.00794 nM and the EC50 (human GLP-1R) is reported as greater than 1 nM.

`CC(C)C[C@H](NC(=O)[C@H](Cc1ccc(O)cc1)NC(=O)[C@H](CCCCN)NC(=O)[C@H](CO)NC(=O)[C@H](Cc1ccc(O)cc1)NC(=O)[C@H](CC(=O)O)NC(=O)[C@H](CO)NC(=O)[C@@H](NC(=O)[C@H](Cc1ccccc1)NC(=O)[C@@H](NC(=O)CNC(=O)[C@H](Cc1c[nH]cn1)NC(=O)[C@H](CO)NC(=O)[C@@H](N)Cc1ccc(O)cc1)[C@@H](C)O)[C@@H](C)O)C(=O)N[C@@H](CC(=O)O)C(=O)NC(C)(C)C(=O)N[C@@H](CCCCN)C(=O)N[C@@H](CCCNC(=N)N)C(=O)N[C@@H](C)C(=O)N[C@@H](CCC(N)=O)C(=O)N[C@@H](CCC(=O)O)C(=O)N[C@@H](Cc1ccccc1)C(=O)N[C@H](C(=O)NC(C)(C)C(=O)N[C@@H](Cc1c[nH]c2ccccc12)C(=O)N[C@@H](CC(C)C)C(=O)N[C@@H](CCC(=O)O)C(=O)N[C@@H](CC(=O)O)C(=O)N[C@@H](CCC(=O)O)C(=O)N1CCC[C@H]1C(=O)N[C@@H](CO)C(=O)N[C@@H](CCCCN)C(=O)NCC(=O)N[C@@H](C)C(=O)N1CCC[C@H]1C(=O)N1CCC[C@H]1C(=O)N1CCC[C@H]1C(=O)N[C@@H](CO)C(=O)O)C(C)C` [Compound A30] (H-YSHGTFTSDYSKYLD[Aib]KRAQEFV[Aib]WLEDEPSKGAPPPS-OH; N-terminus assumed) was tested, and the EC50 (human GCGR) was 0.0126 nM and the EC50 (human GLP-1R) was greater than 1 nM.

`CC(C)C[C@H](NC(=O)[C@H](Cc1ccc(O)cc1)NC(=O)[C@H](CCCCN)NC(=O)[C@H](CO)NC(=O)[C@H](Cc1ccc(O)cc1)NC(=O)[C@H](CC(=O)O)NC(=O)[C@H](CO)NC(=O)[C@@H](NC(=O)[C@H](Cc1ccccc1)NC(=O)[C@@H](NC(=O)CNC(=O)[C@H](Cc1c[nH]cn1)NC(=O)[C@H](CO)NC(=O)[C@@H](N)Cc1ccc(O)cc1)[C@@H](C)O)[C@@H](C)O)C(=O)N[C@@H](CC(=O)O)C(=O)NC(C)(C)C(=O)N[C@@H](CCCCN)C(=O)N[C@@H](CCCNC(=N)N)C(=O)N[C@@H](C)C(=O)N[C@@H](CCC(N)=O)C(=O)N[C@@H](CCC(=O)O)C(=O)N[C@@H](Cc1ccccc1)C(=O)N[C@H](C(=O)NC(C)(C)C(=O)N[C@@H](Cc1c[nH]c2ccccc12)C(=O)N[C@@H](CC(C)C)C(=O)N[C@@H](CCC(=O)O)C(=O)N[C@@H](CC(=O)O)C(=O)N[C@@H](CCC(=O)O)C(=O)N1CCC[C@H]1C(=O)N[C@@H](CCC(=O)O)C(=O)N[C@@H](CO)C(=O)NCC(=O)N[C@@H](C)C(=O)N1CCC[C@H]1C(=O)N1CCC[C@H]1C(=O)N1CCC[C@H]1C(=O)N[C@@H](CO)C(=O)O)C(C)C` [Compound A31] (H-YSHGTFTSDYSKYLD[Aib]KRAQEFV[Aib]WLEDEPESGAPPPS-OH; N-terminus assumed) showed an EC50 (human GCGR) of 0.002 nM and an EC50 (human GLP-1R) greater than 1 nM.

`CC(C)C[C@H](NC(=O)[C@H](Cc1c[nH]c2ccccc12)NC(=O)[C@H](CCCCN)NC(=O)[C@H](CO)NC(=O)[C@H](Cc1c[nH]cn1)NC(=O)[C@H](CC(=O)O)NC(=O)[C@H](CO)NC(=O)[C@@H](NC(=O)[C@H](Cc1ccccc1)NC(=O)[C@@H](NC(=O)CNC(=O)[C@H](Cc1c[nH]cn1)NC(=O)[C@H](CO)NC(=O)[C@@H](N)Cc1ccc(O)cc1)[C@@H](C)O)[C@@H](C)O)C(=O)N[C@@H](CC(=O)O)C(=O)NC(C)(C)C(=O)N[C@@H](CCCCN)C(=O)N[C@@H](CCCNC(=N)N)C(=O)N[C@@H](C)C(=O)N[C@@H](CCC(N)=O)C(=O)N[C@@H](CCC(=O)O)C(=O)N[C@@H](Cc1ccccc1)C(=O)N[C@H](C(=O)NC(C)(C)C(=O)N[C@@H](Cc1c[nH]c2ccccc12)C(=O)N[C@@H](CC(C)C)C(=O)N[C@@H](CCC(=O)O)C(=O)N[C@@H](CC(=O)O)C(=O)N[C@@H](CCC(=O)O)C(=O)N1CCC[C@H]1C(=O)N[C@@H](CO)C(=O)N[C@@H](CO)C(=O)NCC(=O)N[C@@H](C)C(=O)N1CCC[C@H]1C(=O)N1CCC[C@H]1C(=O)N1CCC[C@H]1C(=O)N[C@@H](CO)C(=O)O)C(C)C` [Compound A33] (H-YSHGTFTSDHSKWLD[Aib]KRAQEFV[Aib]WLEDEPSSGAPPPS-OH; N-terminus assumed) was tested, and the EC50 (human GCGR) was 0.0126 nM and the EC50 (human GLP-1R) was greater than 1 nM.

`CC(C)C[C@H](NC(=O)[C@H](Cc1c[nH]c2ccccc12)NC(=O)[C@H](CCCCN)NC(=O)[C@H](CO)NC(=O)[C@H](Cc1c[nH]cn1)NC(=O)[C@H](CC(=O)O)NC(=O)[C@H](CO)NC(=O)[C@@H](NC(=O)[C@H](Cc1ccccc1)NC(=O)[C@@H](NC(=O)CNC(=O)[C@H](Cc1c[nH]cn1)NC(=O)[C@@H](NC(=O)[C@@H](N)Cc1ccc(O)cc1)[C@@H](C)O)[C@@H](C)O)[C@@H](C)O)C(=O)N[C@@H](CC(=O)O)C(=O)NC(C)(C)C(=O)N[C@@H](CCCCN)C(=O)N[C@@H](CCCNC(=N)N)C(=O)N[C@@H](C)C(=O)N[C@@H](CCC(N)=O)C(=O)N[C@@H](CCC(=O)O)C(=O)N[C@@H](Cc1ccccc1)C(=O)N[C@H](C(=O)NC(C)(C)C(=O)N[C@@H](Cc1c[nH]c2ccccc12)C(=O)N[C@@H](CC(C)C)C(=O)N[C@@H](CCC(=O)O)C(=O)N[C@@H](CC(=O)O)C(=O)N[C@@H](CCC(=O)O)C(=O)N1CCC[C@H]1C(=O)N[C@@H](CO)C(=O)N[C@@H](CO)C(=O)NCC(=O)N[C@@H](C)C(=O)N1CCC[C@H]1C(=O)N1CCC[C@H]1C(=O)N1CCC[C@H]1C(=O)N[C@@H](CO)C(=O)O)C(C)C` [Compound A34] (H-YTHGTFTSDHSKWLD[Aib]KRAQEFV[Aib]WLEDEPSSGAPPPS-OH; N-terminus assumed) gave an EC50 (human GCGR) of 0.0501 nM and an EC50 (human GLP-1R) greater than 1 nM.

With `CC(C)C[C@H](NC(=O)[C@H](Cc1c[nH]c2ccccc12)NC(=O)[C@H](CCCCN)NC(=O)[C@H](CO)NC(=O)[C@H](Cc1c[nH]cn1)NC(=O)[C@H](CC(=O)O)NC(=O)[C@H](CO)NC(=O)[C@@H](NC(=O)[C@H](Cc1ccccc1)NC(=O)[C@@H](NC(=O)CNC(=O)[C@H](Cc1c[nH]cn1)NC(=O)[C@H](CO)NC(=O)[C@@H](N)Cc1ccc(O)cc1)[C@@H](C)O)[C@@H](C)O)C(=O)N[C@@H](CC(=O)O)C(=O)NC(C)(C)C(=O)N[C@@H](C)C(=O)N[C@@H](CCCNC(=N)N)C(=O)N[C@@H](C)C(=O)N[C@@H](CCC(N)=O)C(=O)N[C@@H](CCC(=O)O)C(=O)N[C@@H](Cc1ccccc1)C(=O)N[C@H](C(=O)NC(C)(C)C(=O)N[C@@H](Cc1c[nH]c2ccccc12)C(=O)N[C@@H](CC(C)C)C(=O)N[C@@H](CCC(=O)O)C(=O)N[C@@H](CC(=O)O)C(=O)N[C@@H](CCC(=O)O)C(=O)N1CCC[C@H]1C(=O)N[C@@H](CO)C(=O)N[C@@H](CO)C(=O)NCC(=O)N[C@@H](C)C(=O)N1CCC[C@H]1C(=O)N1CCC[C@H]1C(=O)N1CCC[C@H]1C(=O)N[C@@H](CO)C(=O)O)C(C)C` [Compound A36] (H-YSHGTFTSDHSKWLD[Aib]ARAQEFV[Aib]WLEDEPSSGAPPPS-OH; N-terminus assumed) the EC50 (human GCGR) was 0.0631 nM and the EC50 (human GLP-1R) was greater than 1 nM.

With `CC(C)C[C@H](NC(=O)[C@H](Cc1c[nH]c2ccccc12)NC(=O)[C@H](CCCCN)NC(=O)[C@H](CO)NC(=O)[C@H](Cc1ccc(O)cc1)NC(=O)[C@H](CC(=O)O)NC(=O)[C@H](CO)NC(=O)[C@@H](NC(=O)[C@H](Cc1ccccc1)NC(=O)[C@@H](NC(=O)CNC(=O)[C@H](Cc1c[nH]cn1)NC(=O)[C@@H](NC(=O)[C@@H](N)Cc1ccc(O)cc1)[C@@H](C)O)[C@@H](C)O)[C@@H](C)O)C(=O)N[C@@H](CC(=O)O)C(=O)N[C@@H](CO)C(=O)N[C@@H](C)C(=O)N[C@@H](CCCNC(=N)N)C(=O)N[C@@H](C)C(=O)N[C@@H](CCC(N)=O)C(=O)N[C@@H](CCC(=O)O)C(=O)N[C@@H](Cc1ccccc1)C(=O)N[C@H](C(=O)N[C@@H](CCCCN)C(=O)N[C@@H](Cc1c[nH]c2ccccc12)C(=O)N[C@@H](CC(C)C)C(=O)N[C@@H](CCC(=O)O)C(=O)N[C@@H](CC(=O)O)C(=O)N[C@@H](CCC(=O)O)C(=O)N1CCC[C@H]1C(=O)N[C@@H](CO)C(=O)N[C@@H](CO)C(=O)NCC(=O)N[C@@H](C)C(=O)N1CCC[C@H]1C(=O)N1CCC[C@H]1C(=O)N1CCC[C@H]1C(=O)N[C@@H](CO)C(=O)O)C(C)C` [Compound A39] (H-YTHGTFTSDYSKWLDSARAQEFVKWLEDEPSSGAPPPS-OH; N-terminus assumed) the EC50 (human GCGR) was 0.398 nM and the EC50 (human GLP-1R) was greater than 1 nM.
